Results taken from ChEMBL document CHEMBL4393658, “Fluorinated indole-imidazole conjugates: Selective orally bioavailable 5-HT7 receptor low-basicity agonists, potential neuropathic painkillers” (Eur J Med Chem, 2019).

Legend:
[1] = Drug uptake in CD-1 mouse brain at […] , ip by LC/MS/MS analysis; format: ADME, organism-based; conditions: in vivo
[2] = Drug uptake in CD-1 mouse brain at […] , iv by LC/MS/MS analysis; format: ADME, organism-based; conditions: in vivo
[3] = Bioavailability in CD-1 mouse at […], ip by LC-MS/MS analysis; format: ADME, organism-based; conditions: in vivo
[4] = Cmax in CD-1 mouse brain at […], ip by LC-MS/MS analysis; format: ADME, organism-based; set-up: dose 2.5 mg/kg, route intraperitoneal
[5] = Ratio of drug level in CD-1 mouse brain to plasma by LC-ESI/MS/MS analysis; format: ADME; conditions: brain and plasma
[6] = Brain to plasma distribution coefficient in CD-1 mouse; format: ADME, organism-based; conditions: brain and plasma
[7] = Half life in CD-1 mouse at […], iv by LC-MS/MS analysis; format: ADME, organism-based; conditions: in vivo
Mus musculus = assay: Ratio of half life in CD-1 mouse at […], ip to half life in mouse at […], ig; format: ADME, organism-based; conditions: in vivo
[8] = Volume of distribution at steady state in CD-1 mouse at […] by LC-MS/MS analysis; format: ADME, organism-based; conditions: in vivo, read-out: Vdss
[9] = Volume of distribution in CD-1 mouse at […], ip by LC--MS/MS analysis; format: ADME, organism-based; conditions: in vivo
[10] = Drug uptake in CD-1 mouse brain at […] , ig by LC/MS/MS analysis; format: ADME, organism-based; conditions: in vivo, po
[11] = Tmax in CD-1 mouse at […], ip by LC-MS/MS analysis; format: ADME, organism-based; conditions: in vivo
[12] = Half life in CD-1 mouse by LC-MS/MS analysis; format: ADME; conditions: in vivo
[13] = Bioavailability in CD-1 mouse at […], ig by LC-MS/MS analysis; format: ADME, organism-based; conditions: in vivo, po
[14] = Tmax in CD-1 mouse brain at […], ip by LC-MS/MS analysis; format: ADME, organism-based

Drug uptake [1]: Active | Drug uptake [2]: Active | bioavailability [3]: 39% | Cmax [4]: 1070 ng/g | Kp [5]: 1.88 to 4.76 | Kp [6]: 3.48 | half-life [7]: 3.17 h | Ratio (Mus musculus): 2 | Vd [8]: 2.8 L/kg | Vd [9]: 33.5 L/kg | Drug uptake [10]: Active | Tmax [11]: 5 min | half-life [12]: 3.37 h | bioavailability [13]: 24% | Tmax [14]: 0.5 h
SMILES: CCn1cncc1-c1c[nH]c2ccc(I)c(F)c12.Cl
